Reference: US8354422B2, “Pyrimidine inhibitors of kinase activity” (Abbott Laboratories Inc., priority 2009, dated 2013)

biological target: T1, C-terminal GST-tagged, recombinant, human IGF-1R, amino acids 954-1367 (Homo sapiens, UniProt P08069); assay: IGF-1R kinase activity, homogenous time-resolved fluorescence (HTRF) in vitro kinase assay; format: biochemical; settings: IGF-1R kinase HTRF assay, ATP 50 μM, biotinylated peptide substrate 0.5 μM, 60 minutes at room temperature
T1 construct: human IGF-1R, amino acids 954-1367 expressed by baculovirus in Sf21 cells; GST (C); purchased Cell Signaling Technology; host or cells: baculovirus in Sf21 cells
T1 sequence (P08069 954-1367): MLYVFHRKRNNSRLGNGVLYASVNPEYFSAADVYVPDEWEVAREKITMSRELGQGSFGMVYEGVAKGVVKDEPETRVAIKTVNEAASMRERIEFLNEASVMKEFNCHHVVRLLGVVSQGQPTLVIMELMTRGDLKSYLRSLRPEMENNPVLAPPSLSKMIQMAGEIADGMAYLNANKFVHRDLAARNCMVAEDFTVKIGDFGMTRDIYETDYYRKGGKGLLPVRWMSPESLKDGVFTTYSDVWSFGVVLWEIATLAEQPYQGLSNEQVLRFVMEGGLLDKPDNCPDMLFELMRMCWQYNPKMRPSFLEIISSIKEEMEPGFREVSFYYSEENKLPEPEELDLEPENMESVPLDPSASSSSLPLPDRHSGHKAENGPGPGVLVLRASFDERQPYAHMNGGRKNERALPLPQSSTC
Procedure: IGF-1R kinase activity was assayed by a homogenous time-resolved fluorescence (HTRF) in vitro kinase assay (Mathis, G., HTRF(R) Technology. J Biomol Screen, 1999. 4(6): p. 309-314). Specifically, 10 μL C-terminal GST-tagged, recombinant, human IGF-1R, amino acids 954-1367 expressed by baculovirus in Sf21 cells (Cell Singaling Technology) was mixed with 10 μL inhibitor (various concentrations, 2% final DMSO) and 10 μL of ATP (50 μM final concentration) in reaction buffer (50 mM HEPES, pH […], 2 mM MnCl2, 0.1% BSA and 1 mM DTT, 40 μL final volume). The reaction was initiated by addition of 10 μL of biotinylated peptide substrate (Biotin-Ahx-[…], 0.5 μM final concentration) in a black 384-well plate (Packard). After 60 minutes incubation at room temperature, the reaction was quenched by addition of 60 μL stop/revelation buffer to give 30 mM EDTA, 1 μg/mL streptavidin-APC (Prozyme), 50 ng/mL anti-phosphotyrosine mAb PT66-K Europium Cryptate, 30 mM HEPES, pH 7.5, 120 mM KF, 0.005% Tween-20, 0.05% BSA). The quenched reaction was allowed to stand at room temperature for 1 hour and then read in a time-resolved fluorescence detector (Envision, Perkin Elmer) at 615 nm and 665 nm simultaneously. The ratio between the signal of 615 nm and 665 nm was used in the calculation of the IC50.

Row | Compound | IC50
1 | CN(C)CCc1cccc(Nc2nccc(-c3c(-c4ccc(OCc5cccc(F)c5)cc4)nc4ccccn34)n2)c1 [Example 19, N-{3-[2-(dimethylamino)ethyl]phenyl}-4-(2-{4-[(3-fluorobenzyl)oxy]phenyl}imidazo[1,2-a]pyridin-3-yl)pyrimidin-2-amine] | 101 to 500 nM
2 | c1ccc(COc2ccc(-c3nc4ccccn4c3-c3ccnc(Nc4ccccc4)n3)cc2)cc1 [Example 7, 4-{2-[4-(benzyloxy)phenyl]imidazo[1,2-a]pyridin-3-yl}-N-phenylpyrimidin-2-amine] | > 1000 nM
3 | CN(C)CCc1cccc(Nc2nccc(-c3c(-c4ccc(OCc5ccccc5)c(Cl)c4)nc4ccccn34)n2)c1 [Example 11, 4-{2-[4-(benzyloxy)-3-chlorophenyl]imidazo[1,2-a]pyridin-3-yl}-N-{3-[2-(dimethylamino)ethyl]phenyl}pyrimidin-2-amine] | 101 to 500 nM
4 | CN(C)CCc1cccc(Nc2nccc(-c3c(-c4ccc(OCc5ccccc5)cc4F)nc4ccccn34)n2)c1 [Example 8, 4-{2-[4-(benzyloxy)-2-fluorophenyl]imidazo[1,2-a]pyridin-3-yl}-N-{3-[2-(dimethylamino)ethyl]phenyl}pyrimidin-2-amine] | 25 to 100 nM
5 | COc1cc(-c2nc3sccn3c2-c2ccnc(Nc3ccc(CN(C)C)cc3)n2)ccc1OCc1ccccc1 [Example 83] | 25 to 100 nM
6 | COc1ccc(NC(=O)CN(C)C)cc1Nc1nccc(-c2c(-c3ccc(OCc4ccccc4)cc3)nc3ccccn23)n1 [Example 72, N^1-{3-[(4-{2-[4-(benzyloxy)phenyl]imidazo[1,2-a]pyridin-3-yl}pyrimidin-2-yl)amino]-4-methoxyphenyl}-N^2,N^2-dimethylglycinamide] | < 25 nM
7 | CN(C)CCc1cccc(Nc2nccc(-c3c(-c4ccc(OCc5ccccc5F)cc4)nc4ccccn34)n2)c1 [Example 18, N-{3-[2-(dimethylamino)ethyl]phenyl}-4-(2-{4-[(2-fluorobenzyl)oxy]phenyl}imidazo[1,2-a]pyridin-3-yl)pyrimidin-2-amine] | 101 to 500 nM
8 | CN(C)CCc1cccc(Nc2nccc(-c3c(-c4ccc(OCc5ccc(F)cc5)cc4)nc4ccccn34)n2)c1 [Example 20, N-{3-[2-(dimethylamino)ethyl]phenyl}-4-(2-{4-[(4-fluorobenzyl)oxy]phenyl}imidazo[1,2-a]pyridin-3-yl)pyrimidin-2-amine] | 101 to 500 nM
9 | COc1ccccc1Nc1nccc(-c2c(-c3ccc(OCc4ccccc4)cc3)nc3sccn23)n1 [Example 79, 4-{6-[4-(benzyloxy)phenyl]imidazo[2,1-b][1,3]thiazol-5-yl}-N-(2-methoxyphenyl)pyrimidin-2-amine] | > 1000 nM
10 | COc1ccccc1COc1ccc(-c2nc3ccccn3c2-c2ccnc(Nc3cccc(CCN(C)C)c3)n2)cc1 [Example 16, N-{3-[2-(dimethylamino)ethyl]phenyl}-4-(2-{4-[(2-methoxybenzyl)oxy]phenyl}imidazo[1,2-a]pyridin-3-yl)pyrimidin-2-amine] | 101 to 500 nM
11 | COc1ccc(C(F)(F)F)cc1Nc1nccc(-c2c(-c3ccc(OCc4ccccc4)cc3)nc3ccccn23)n1 [Example 41, 4-{2-[4-(benzyloxy)phenyl]imidazo[1,2-a]pyridin-3-yl}-N-[2-methoxy-5-(trifluoromethyl)phenyl]pyrimidin-2-amine] | > 1000 nM
12 | CN(C)CCc1cccc(Nc2nccc(-c3c(-c4ccc(OCc5ccccc5)cc4)nc4ccccn34)n2)c1 [Example 1, 4-{2-[4-(benzyloxy)phenyl]imidazo[1,2-a]pyridin-3-yl}-N-{3-[2-(dimethylamino)ethyl]phenyl}pyrimidin-2-amine] | < 25 nM
13 | CCc1cc(-c2nc3ccccn3c2-c2ccnc(Nc3cccc(CCN(C)C)c3)n2)ccc1OCc1ccccc1 [Example 50, 4-{2-[4-(benzyloxy)-3-ethylphenyl]imidazo[1,2-a]pyridin-3-yl}-N-{3-[2-(dimethylamino)ethyl]phenyl}pyrimidin-2-amine] | > 1000 nM

The next lines start with the values.

Row | IC50 | Compound
14 | 101 to 500 nM | COc1cc(-c2nc3ccccn3c2-c2ccnc(Nc3cnn(CCN4CCCCC4)c3)n2)ccc1OCc1ccccc1 [Example 54, 4-{2-[4-(benzyloxy)-3-methoxyphenyl]imidazo[1,2-a]pyridin-3-yl}-N-[1-(2-piperidin-1-ylethyl)-1H-pyrazol-4-yl]pyrimidin-2-amine]
15 | 101 to 500 nM | COc1ccc(CN(C)CCO)cc1Nc1nccc(-c2c(-c3ccc(OCc4ccccc4)c(OC)c3)nc3ccccn23)n1 [Example 64, 2-[{3-[(4-{2-[4-(benzyloxy)-3-methoxyphenyl]imidazo[1,2-a]pyridin-3-yl}pyrimidin-2-yl)amino]-4-methoxybenzyl}(methyl)amino]ethanol]
16 | < 25 nM | COc1cc(-c2nc3ccccn3c2-c2ccnc(Nc3ccc(CCN(C)C)cc3)n2)ccc1OCc1ccccc1 [Example 69, 4-{2-[4-(benzyloxy)-3-methoxyphenyl]imidazo[1,2-a]pyridin-3-yl}-N-{4-[2-(dimethylamino)ethyl]phenyl}pyrimidin-2-amine]
17 | > 1000 nM | FC(F)(F)Oc1cc(-c2nc3ccccn3c2-c2ccnc(Nc3cccc(CCN4CCCC4)c3)n2)ccc1OCc1ccccc1 [Example 58, 4-{2-[4-(benzyloxy)-3-(trifluoromethoxy)phenyl]imidazo[1,2-a]pyridin-3-yl}-N-[3-(2-pyrrolidin-1-ylethyl)phenyl]pyrimidin-2-amine]
18 | 101 to 500 nM | COc1cc(-c2nc3ccccn3c2-c2ccnc(Nc3cccc(CCN(C)C)c3)n2)ccc1OCc1ccccc1 [Example 12, 4-{2-[4-(benzyloxy)-3-methoxyphenyl]imidazo[1,2-a]pyridin-3-yl}-N-{3-[2-(dimethylamino)ethyl]phenyl}pyrimidin-2-amine]
19 | > 1000 nM | COc1cc(-c2nc3sccn3c2-c2ccnc(Nc3ccccc3CN3CCCC3)n2)ccc1OCc1ccccc1 [Example 82, 4-{6-[4-(benzyloxy)-3-methoxyphenyl]imidazo[2,1-b][1,3]thiazol-5-yl}-N-[2-(pyrrolidin-1-ylmethyl)phenyl]pyrimidin-2-amine]
20 | > 1000 nM | COc1ccccc1Nc1nccc(-c2c(-c3ccc(OCc4ccccc4)cc3)nc3ccccn23)n1 [Example 3, 4-{2-[4-(benzyloxy)phenyl]imidazo[1,2-a]pyridin-3-yl}-N-(2-methoxyphenyl)pyrimidin-2-amine]
21 | 25 to 100 nM | COc1cc(N2CCC(N(C)C)CC2)ccc1Nc1nccc(-c2c(-c3ccc(OCc4ccccc4)c(OC)c3)nc3ccccn23)n1 [Example 33, 4-{2-[4-(benzyloxy)-3-methoxyphenyl]imidazo[1,2-a]pyridin-3-yl}-N-{4-[4-(dimethylamino)piperidin-1-yl]-2-methoxyphenyl}pyrimidin-2-amine]
22 | 25 to 100 nM | COc1cc(N2CCC(N(C)C)CC2)ccc1Nc1nccc(-c2c(-c3ccc(OCc4ccccc4)cc3)nc3sccn23)n1 [Example 80, 4-{6-[4-(benzyloxy)phenyl]imidazo[2,1-b][1,3]thiazol-5-yl}-N-{4-[4-(dimethylamino)piperidin-1-yl]-2-methoxyphenyl}pyrimidin-2-amine]
23 | < 25 nM | COc1cc(-c2nc3ccccn3c2-c2ccnc(Nc3ccc(N4CCC(N(C)C)CC4)cc3)n2)ccc1OCc1ccccc1 [Example 36, 4-{2-[4-(benzyloxy)-3-methoxyphenyl]imidazo[1,2-a]pyridin-3-yl}-N-{4-[4-(dimethylamino)piperidin-1-yl]phenyl}pyrimidin-2-amine]
24 | 25 to 100 nM | COc1cc(-c2nc3ccccn3c2-c2ccnc(Nc3ccc4c(c3)CN(C)CC4)n2)ccc1OCc1ccccc1 [Example 60, N-(4-{2-[4-(benzyloxy)-3-methoxyphenyl]imidazo[1,2-a]pyridin-3-yl}pyrimidin-2-yl)-2-methyl-1,2,3,4-tetrahydroisoquinolin-7-amine]
25 | 501 to 1000 nM | COc1cc(N2CCSCC2)ccc1Nc1nccc(-c2c(-c3ccc(OCc4ccccc4)c(OC)c3)nc3ccccn23)n1 [Example 51, 4-{2-[4-(benzyloxy)-3-methoxyphenyl]imidazo[1,2-a]pyridin-3-yl}-N-(2-methoxy-4-thiomorpholin-4-ylphenyl)pyrimidin-2-amine]
26 | 25 to 100 nM | COc1cc(N2CCS(=O)(=O)CC2)ccc1Nc1nccc(-c2c(-c3ccc(OCc4ccccc4)c(OC)c3)nc3ccccn23)n1 [Example 63, 4-{2-[4-(benzyloxy)-3-methoxyphenyl]imidazo[1,2-a]pyridin-3-yl}-N-[4-(1,1-dioxidothiomorpholin-4-yl)-2-methoxyphenyl]pyrimidin-2-amine]
27 | > 1000 nM | COc1cc(Cl)ccc1Nc1nccc(-c2c(-c3ccc(OCc4ccccc4)cc3)nc3ccccn23)n1 [Example 22, 4-{2-[4-(benzyloxy)phenyl]imidazo[1,2-a]pyridin-3-yl}-N-(4-chloro-2-methoxyphenyl)pyrimidin-2-amine]
28 | 101 to 500 nM | COc1cc(-c2nc3ccccn3c2-c2ccnc(Nc3cnn(CCN4CCCC4)c3)n2)ccc1OCc1ccccc1 [Example 37, 4-{2-[4-(benzyloxy)-3-methoxyphenyl]imidazo[1,2-a]pyridin-3-yl}-N-[1-(2-pyrrolidin-1-ylethyl)-1H-pyrazol-4-yl]pyrimidin-2-amine]
